Our source for the IC50 and EC50 values is publication PMC8268581, “Identification of 3,4-Dihydro-2H,6H-pyrimido[1,2-c][1,3]benzothiazin-6-imine Derivatives as Novel Selective Inhibitors of Plasmodium falciparum Dihydroorotate Dehydrogenase” (International Journal of Molecular Sciences, 2021).

The IC50 is the concentration that inhibits the measured activity by half. The term EC50 denotes the concentration that produces a half-maximal response. A low value points to an effect from little substance.

The target in data set [1] is T1, PfDHODH (Plasmodium falciparum, UniProt Q08210).
T1 construct: encoding amino acid residues 158 to 569 fused to a His6-SUMO tag in its N-terminus; His6-SUMO (N, cleaved yes); made in house; host or cells: E. coli BL21 Star (DE3), pETSUMO/PfDHODH
As to the kind of experiment: PfDHODH inhibition assay (DCIP end-point, 384-well). It is filed as biochemical. Particulars: recombinant tag-free PfDHODH, 20 min, serial dilutions 0.0007-22.7 µM; read-out: IC50 DHODH Pf.

A short description of data set [2]: Cytotoxicity assay, PANC-1 (Cell Counting Kit-8). It is filed as cell-based. The settings on record: PANC-1 human pancreatic carcinoma cells. In general terms: Formazan colour is commonly taken as a measure of viable cells.
The nature of data set [3]: Cytotoxicity assay, DLD-1 (Cell Counting Kit-8). Particulars: DLD-1 human colorectal adenocarcinoma cells. Type of data set: cell-based.
Data set [4] addresses T2, HsDHODH (Homo sapiens, UniProt Q02127).
T2 construct: made in house
Put plainly: HsDHODH counter-assay. Type of data set: biochemical. Particulars: purified recombinant HsDHODH, tested at 4.5 µM; read-out: IC50 DHODH Hs.

T1 sequence (Q08210 158-569): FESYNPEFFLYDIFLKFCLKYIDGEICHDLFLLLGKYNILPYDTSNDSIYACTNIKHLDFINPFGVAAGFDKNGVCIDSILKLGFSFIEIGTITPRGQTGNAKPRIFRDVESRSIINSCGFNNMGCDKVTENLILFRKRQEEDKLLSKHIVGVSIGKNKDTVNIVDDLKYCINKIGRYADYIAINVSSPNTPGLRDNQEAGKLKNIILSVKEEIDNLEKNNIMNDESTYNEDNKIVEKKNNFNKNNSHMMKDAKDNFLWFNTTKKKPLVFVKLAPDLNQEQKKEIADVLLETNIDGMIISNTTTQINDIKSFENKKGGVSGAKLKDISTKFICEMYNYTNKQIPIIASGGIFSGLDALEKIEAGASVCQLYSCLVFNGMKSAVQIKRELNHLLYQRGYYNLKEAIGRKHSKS
T2 sequence (Q02127 whole entry): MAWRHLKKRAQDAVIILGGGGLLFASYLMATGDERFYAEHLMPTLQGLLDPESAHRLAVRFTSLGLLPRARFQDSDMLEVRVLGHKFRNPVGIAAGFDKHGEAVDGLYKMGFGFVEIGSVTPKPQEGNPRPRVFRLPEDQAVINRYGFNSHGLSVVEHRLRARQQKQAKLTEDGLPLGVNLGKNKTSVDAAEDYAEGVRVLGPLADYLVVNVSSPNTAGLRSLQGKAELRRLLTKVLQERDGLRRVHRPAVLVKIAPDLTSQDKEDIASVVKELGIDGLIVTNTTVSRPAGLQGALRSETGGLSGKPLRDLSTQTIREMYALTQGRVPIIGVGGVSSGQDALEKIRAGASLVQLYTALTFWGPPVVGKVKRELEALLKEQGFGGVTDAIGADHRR

Take `C#CCOCc1ccc(C(=O)c2ccc(-c3ccc4c(c3)SC(=N)N3CCCN=C43)cc2)cc1` [Compound 20]: the IC50 is 1.21 ± 0.06 µM in data set [1] and > 4.5 µM in data set [4]. The EC50 at 48 h in data set [2] and in data set [3] was > 10 µM throughout.
